The subject of experiment [1] is conscious instrumented Dog. The experiment is described as follows: Cardiotonic activity in the conscious instrumented Dog. The format is in vivo, dog (male Beagle). The note with it: Canis lupus familiaris, po; for change in vivo at 3 mg/kg: 3.00 mg/kg p.o.; for change in vivo at 0.3 mg/kg: 0.30 mg/kg p.o.; for change in vivo at 1 mg/kg: 1.00 mg/kg p.o.; for change in vivo at 0.1 mg/kg: 0.10 mg/kg p.o. On the procedure:
Cardiotonic activity in the conscious instrumented Dog
Male Beagle dogs, at least 2 years old, weighing 12 to 18 kg were anaesthetised with pentobarbital sodium (30 mg/kg i.v.). Respiration was maintained by a Harward pump, model 613a. The heart was exposed through a left thoracotomy and a pericardial cardle was formed. A high fidelity micromanometer (Koenigsberg P5 -P7) was inserted into left venitricular lumen through a stab incision at the apex. Wires were exteriorised to the back of the animals, placed into a size adapted jacket, and the chest closed. The experiments were conducted on the conscious dogs, 1 or 2 weeks after the surgery, when the animals had completely recovered.
Measured parameters were : first derivative of left ventricular pressure, (dP/dt, mmHg/sec); heart rate (HR, beats/min.). A control period recording of 90 min. was made with the dogs placed in a quiet room, the recordings being made outside. Compounds to be tested were administered orally in gelatin capsules and the parameters measured for 5 hrs. at least.
Results were expressed as the percentage of the maximum±SEM.

Experiment [2] relates to Canine cardiac myofibrillar Ca++-dependent Mg++ ATPase. The experiment can be described thus: Measurement of myofibrillar Ca++-dependent Mg++ATPase activity (Ca++ sensitivity and maximal activity). As to conditions: pH 7.0, 21° C. In kind it is biochemical, canine (dog). On the procedure:
1. Measurement of myofibrillar Ca++-dependent Mg++ATPase activity
the effect on myofibrillar Ca++sensitivity and on maximal activity of myofibrillar Ca++-dependent Mg++-ATPase was determined on canine cardiac myofibrils.
(a) Contractile protein preparation
Cardiac myofibrils free of membrane contaminants were prepared from left ventricular tissue of dog hearts using a modification of the method described by SOLARO et al, Biochem. Biophys. Acta, 245, 259-262, (1971). Before centrifugration, the heart homogenate was filtered through gauze.
After Triton X-100 treatments, the myofibrillar fraction was washed once by resuspension and centrifugation in 10 volumes of 1 mM EGTA, […], 30 mM imidazole, 2 mM MgCl2, pH 7.0. The pellet was then washed three times in 10 volumes of the same buffer without EGTA. Before the last centrifugation, the suspension of myofibrils was filtered through a stainless steel sieve with 0.25 mm meshes.
Myofibrils were kept in pellet overnight. Before use, the pellet was suspended in a small amount of buffer, the protein concentration was determined by the method of BRADFORD M., Anal. Biochem., 1976, 72, 248 and adjusted in order to have a concentration between 6 and 7 mg/ml.
(b) Myofibrillar ATPase activity
Ca++-dependent myfibrillar ATPase activity was determined at 21° C., pH 7.0, by measuring the rate of release of inorganic phosphate. All assays were performed within 24 hrs. of final purification, using the method described by SOLARO and RUEGG, CIRC. RES., 51, 290-4, (1982). Reaction mixtures (4 ml) containing 0.6-0.7 mg/ml myofibrillar protein, 80 mM KCl, 20 mM imidazole, 3 mM […], 1 mM EGTA, the desired amount of CaCl2, and the indicated concentration of drug or appropriate vehicle were preincubated for 6 min. prior to assay. The amount of CaCl2 was varied between 0 and 0.9 mM and the pCA (-log free Ca++) computed using 2.514×10^6 M^-1 as the apparent affinity of Ca++for EGTA at pH 7.0.
Reactions were initiated by the addition of Na2 ATP to final concentration of 2 mM. After an incubation period of 12 min., reactions were quenched by the addition of an equal volume of ice-cold 10% trichloroacetic acid. The protein was pelleted by centrifugation (2000 g, 15 min.) and Pi was assayed in the supernatant fraction using a modification of the method described by LANZETTA et al, Anal. Biochem., 100, 95-97, (1979).
The following solutions were prepared:
(1) 3.7% ammonium heptamolybdate in 0.12N H2 SO4
(2) 0.074% malachite green oxalate in 1% polyvinylic alcohol.
the colour reagent was prepared by mixing an equal volume of solution (1) and (2) 15 min. before the assay. For the assay, 1700 μl of 1% H2 SO4 and 1 ml of colour reagent were added to 100 μl of sample. Colour development occurred at room temperature for 30 min. and was quenched by the addition of 200 μl of 1M tri-potassium citrate. The absorbance was measured at 620 millimicrons.
The effect of each compound, tested at the indicated concentration, on the relation between pCa and percent activation was determined taking 100% for the maximum ATPase activity obtained with vehicle alone. The effect on Ca++ sensitivity was quantified by measuring the shift of the pCa giving 50% of the maximal control ATPase activity.
The effect on maximal ATPase activity was expressed as the percent change of ATPase activity for pCa=5.47.

Setting [3] is: read-out: H.R. (heart rate), percentage of the maximum ± SEM.
The mark [4] stands for this setting: read-out: dP/dt Max (first derivative of left ventricular pressure), percentage of the maximum ± SEM.

Results on ten molecules are retold here after patent publication US4933336A, “Thiadiazinone, oxadiazinone and triazinone derivatives, and their use for treating acute or chronic heart disease” (Laboratoires Sobio S.A., priority 1987, dated 1990).

Each structure is given as a SMILES string. Read-outs that look alike come from different tables or passages of the source.

With `CSC1C(=O)Nc2ccc(C3=NNC(=O)SC3)cc21` (stereo not shown) [Example 11, 1,3-Dihydro-5-(3,6-dihydro-2-oxo-2H-1,3,4-thiadiazin-5-yl) -3-methylthio-2H-indol-2-one], in experiment [1] (setting [3]), the change in vivo at 3 mg/kg stood at 7%. Besides, in experiment [1] (setting [4]), the change in vivo at 3 mg/kg is 51%. Also, in experiment [2] (20 × 10^-5 molar), the “Max ATPase activity (%) (percent change of ATPase activity for pCa=5.47)” value is “+1 ± 0%” and the “Ca2+ sensitivity p CA50 (shift of the pCa giving 50% of the maximal control ATPase activity)” value was determined as 0.36 ± 0.05.
On to `CC1SC(=O)NN=C1c1ccc2c(c1)C1(SCCS1)C(=O)N2` (stereo not shown) [Example 13, 5'-(3,6-Dihydro-6-methyl-2-oxo-2H-1,3,4 thiadiazin-5-yl) -spiro 1,3-dithiolane-2,3'-3H indol-2(1'H)-one], for which the change in vivo at 0.3 mg/kg in experiment [1] (setting [3]) amounted to 15%; in experiment [1] (setting [4]) it was 43%. In experiment [2] (3 × 10^-5 molar), the “Max ATPase activity (%) (percent change of ATPase activity for pCa=5.47)” value is on record as -11 ± 5%. Also, the “Ca2+ sensitivity p CA50 (shift of the pCa giving 50% of the maximal control ATPase activity)” value in experiment [2] (3 × 10^-5 molar) is recorded as 0.58 ± 0.04.
Taken in the same sequence, the figures for `CC1SC(=O)NN=C1c1ccc2c(c1)C1(SCCCS1)C(=O)N2` (stereo not shown) [Example 14, 5'-(3,6-Dihydro-6-methyl-2-oxo-2H-1,3,4-thiadiazin-5-yl) -spiro[1,3-dithiane-2,3'-[3H]indol]-2(1'H)-one] were 22%, 30%, “+4 ± 1%” and 0.71 ± 0.09.
As to `CC1SC(=O)NN=C1c1ccc2c(c1)C1(CCCCC1)C(=O)N2` (stereo not shown) [Example 17], the change in vivo at 3 mg/kg in experiment [1] (setting [3]) worked out at 9%. Moreover, the change in vivo at 3 mg/kg in experiment [1] (setting [4]) was determined as 40%. For the same molecule, in experiment [2] (3 × 10^-5 molar), the “Max ATPase activity (%) (percent change of ATPase activity for pCa=5.47)” value was -17 ± 4% and the “Ca2+ sensitivity p CA50 (shift of the pCa giving 50% of the maximal control ATPase activity)” value turned out to be 0.41 ± 0.07.
Regarding `CC1SC(=O)NN=C1c1ccc2c(c1)C(C)(C)C(=O)N2C` (stereo not shown) [Example 18, 1,3-Dihydro-5-(3,6-dihydro-6-methyl-2-oxo-2H-1,3,4-thiadiazin-5-yl)-1,3,3-trimethyl-2H-indol-2-one], the change in vivo at 0.3 mg/kg in experiment [1] (setting [3]) turned out to be 28%. Moreover, the change in vivo at 0.3 mg/kg in experiment [1] (setting [4]) turned out to be 74%. Also, in experiment [2] (3 × 10^-5 molar), the “Max ATPase activity (%) (percent change of ATPase activity for pCa=5.47)” value was “+3 ± 3%” and the “Ca2+ sensitivity p CA50 (shift of the pCa giving 50% of the maximal control ATPase activity)” value turned out to be 0.19 ± 0.03.
As to `O=C1NN=C(c2ccc3c(c2)C2(CCCS2)C(=O)N3)CS1` (stereo not shown) [Example 20, 5'-(3,6-Dihydro-2-oxo-2H-1,3,4-thiadiazin-5-yl)-spiro [thiolane-2,3'-[3H]-indol]-2'(1'H)-one], the change in vivo at 3 mg/kg in experiment [1] (setting [3]) is 8%. Besides, in experiment [1] (setting [4]), the change in vivo at 3 mg/kg came to 45%. For the same molecule, in experiment [2] (3 × 10^-5 molar), the “Max ATPase activity (%) (percent change of ATPase activity for pCa=5.47)” value was -5 ± 3% and the “Ca2+ sensitivity p CA50 (shift of the pCa giving 50% of the maximal control ATPase activity)” value is listed as 0.21 ± 0.05.
Take `CC1SC(=O)NN=C1c1ccc2c(c1)C1(CCCS1)C(=O)N2` (stereo not shown) [Example 21, 5'-(3,6-Dihydro-6-methyl-2-oxo-2H-1,3,4-thiadiazin-5-yl) -spiro-[thiolane-2,3'-[3H]-indol]-2'(1'H)-one]: the results for the change in vivo at 0.3 mg/kg in experiment [1] (setting [3]) and in experiment [1] (setting [4]) were 9% and 42%, respectively. Also, the “Max ATPase activity (%) (percent change of ATPase activity for pCa=5.47)” value in experiment [2] (1 × 10^-5 molar) is given as -7 ± 2%. In experiment [2] (1 × 10^-5 molar), the “Ca2+ sensitivity p CA50 (shift of the pCa giving 50% of the maximal control ATPase activity)” value was 0.46 ± 0.04.
Regarding `CC1SC(=O)NN=C1c1ccc2c(c1)C1(CCCC1)C(=O)N2C(=O)c1ccncc1` (stereo not shown) [Example 27, 5'-(3 6-Dihydro-6-methyl-2-oxo-2H-1,3,4-thiadiazin-5-yl)-1'-[(4 pyridyl)carbonyl]-spiro[cyclopentane-1,3'-[3H]indol]-2'(1'H)-one], the change in vivo at 1 mg/kg in experiment [1] (setting [3]) turned out to be 15%. Further, the change in vivo at 1 mg/kg in experiment [1] (setting [4]) is 63%. Also, in experiment [2] (3 × 10^-5 molar), the “Max ATPase activity (%) (percent change of ATPase activity for pCa=5.47)” value is reported as “+2 ± 5%” and the “Ca2+ sensitivity p CA50 (shift of the pCa giving 50% of the maximal control ATPase activity)” value came out at 0.47 ± 0.10.
Consider `CC1SC(=O)NN=C1c1ccc2c(c1)C(C)(C)CC(=O)N2` (stereo not shown) [Example 35, 3,4-Dihydro-6-(3,6-dihydro-6-methyl-2-oxo-2H-1,3,4-thiadiazin-5-yl)-4,4-dimethyl-2(1H)-quinolinone], for which the change in vivo at 0.1 mg/kg in experiment [1] (setting [3]) is 20%. Moreover, the change in vivo at 0.1 mg/kg in experiment [1] (setting [4]) was found to be 49%. Further, in experiment [2] (3 × 10^-5 molar), the “Max ATPase activity (%) (percent change of ATPase activity for pCa=5.47)” value was -1 ± 2% and the “Ca2+ sensitivity p CA50 (shift of the pCa giving 50% of the maximal control ATPase activity)” value is 0.45 ± 0.05.
Consider `CC1SC(=O)NN=C1c1ccc2c(c1)CC(C)(C)C(=O)N2` (stereo not shown) [Example 36, 3,4-Dihydro-6-(3,6-dihydro-6-methyl-2-oxo-2H-1,3,4-thiadiazin-5-yl)-3,3-dimethyl-2(1H)-quinolinone], for which the change in vivo at 0.1 mg/kg in experiment [1] (setting [3]) was 7%; in experiment [1] (setting [4]), 46%. Also, in experiment [2] (3 × 10^-5 molar), the “Max ATPase activity (%) (percent change of ATPase activity for pCa=5.47)” value is on record as -4 ± 3%. In addition, in experiment [2] (3 × 10^-5 molar), the “Ca2+ sensitivity p CA50 (shift of the pCa giving 50% of the maximal control ATPase activity)” value was 0.33 ± 0.07.
